The term inhibition denotes the share of the control response that was lost under treatment.

Inhibition data for three compounds are collected here from publication PMC3726451, “Coumestrol from the national cancer Institute’s natural product library is a novel inhibitor of protein kinase CK2” (BMC Pharmacology & Toxicology, 2013).

The target in assay [1] is T1, vascular endothelial growth factor receptor 3 (VEGFR3) (Homo sapiens, UniProt P35916).
T1 construct: gene FLT4
Briefly: ADP-Glo kinase selectivity panel, single concentration […] with […] ATP. It counts as biochemical.

The next assay concerns the target T2, Casein kinase 2 (CK2) (Homo sapiens, UniProt P68400).
T2 construct: gene CSNK2A1
As to the kind of experiment: ADP-Glo kinase assay, single concentration […], duplicates. It counts as biochemical. As to conditions: read-out: % inhibition at 10 μM. On the technique in general: ADP-Glo first removes unused ATP, then detects ADP through luciferase.

T2 sequence (P68400 whole entry): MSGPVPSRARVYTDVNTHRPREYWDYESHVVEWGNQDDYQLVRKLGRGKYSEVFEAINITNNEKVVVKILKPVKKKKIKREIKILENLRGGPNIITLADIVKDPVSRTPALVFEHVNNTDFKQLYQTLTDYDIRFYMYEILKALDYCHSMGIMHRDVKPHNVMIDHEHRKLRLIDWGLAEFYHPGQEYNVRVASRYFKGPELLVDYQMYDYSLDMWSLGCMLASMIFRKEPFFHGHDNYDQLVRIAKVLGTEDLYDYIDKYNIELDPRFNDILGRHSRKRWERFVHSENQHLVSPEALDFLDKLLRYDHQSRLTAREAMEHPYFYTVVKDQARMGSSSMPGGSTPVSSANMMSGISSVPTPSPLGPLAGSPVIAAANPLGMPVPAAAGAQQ
T2 sequence (P67870 2-215 partner): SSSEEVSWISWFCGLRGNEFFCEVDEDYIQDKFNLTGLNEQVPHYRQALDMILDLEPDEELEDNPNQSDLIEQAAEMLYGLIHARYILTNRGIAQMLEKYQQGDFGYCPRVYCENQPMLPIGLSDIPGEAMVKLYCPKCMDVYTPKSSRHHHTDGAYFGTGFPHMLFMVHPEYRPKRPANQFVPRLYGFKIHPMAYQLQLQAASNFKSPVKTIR
T1 sequence (P35916 25-1363): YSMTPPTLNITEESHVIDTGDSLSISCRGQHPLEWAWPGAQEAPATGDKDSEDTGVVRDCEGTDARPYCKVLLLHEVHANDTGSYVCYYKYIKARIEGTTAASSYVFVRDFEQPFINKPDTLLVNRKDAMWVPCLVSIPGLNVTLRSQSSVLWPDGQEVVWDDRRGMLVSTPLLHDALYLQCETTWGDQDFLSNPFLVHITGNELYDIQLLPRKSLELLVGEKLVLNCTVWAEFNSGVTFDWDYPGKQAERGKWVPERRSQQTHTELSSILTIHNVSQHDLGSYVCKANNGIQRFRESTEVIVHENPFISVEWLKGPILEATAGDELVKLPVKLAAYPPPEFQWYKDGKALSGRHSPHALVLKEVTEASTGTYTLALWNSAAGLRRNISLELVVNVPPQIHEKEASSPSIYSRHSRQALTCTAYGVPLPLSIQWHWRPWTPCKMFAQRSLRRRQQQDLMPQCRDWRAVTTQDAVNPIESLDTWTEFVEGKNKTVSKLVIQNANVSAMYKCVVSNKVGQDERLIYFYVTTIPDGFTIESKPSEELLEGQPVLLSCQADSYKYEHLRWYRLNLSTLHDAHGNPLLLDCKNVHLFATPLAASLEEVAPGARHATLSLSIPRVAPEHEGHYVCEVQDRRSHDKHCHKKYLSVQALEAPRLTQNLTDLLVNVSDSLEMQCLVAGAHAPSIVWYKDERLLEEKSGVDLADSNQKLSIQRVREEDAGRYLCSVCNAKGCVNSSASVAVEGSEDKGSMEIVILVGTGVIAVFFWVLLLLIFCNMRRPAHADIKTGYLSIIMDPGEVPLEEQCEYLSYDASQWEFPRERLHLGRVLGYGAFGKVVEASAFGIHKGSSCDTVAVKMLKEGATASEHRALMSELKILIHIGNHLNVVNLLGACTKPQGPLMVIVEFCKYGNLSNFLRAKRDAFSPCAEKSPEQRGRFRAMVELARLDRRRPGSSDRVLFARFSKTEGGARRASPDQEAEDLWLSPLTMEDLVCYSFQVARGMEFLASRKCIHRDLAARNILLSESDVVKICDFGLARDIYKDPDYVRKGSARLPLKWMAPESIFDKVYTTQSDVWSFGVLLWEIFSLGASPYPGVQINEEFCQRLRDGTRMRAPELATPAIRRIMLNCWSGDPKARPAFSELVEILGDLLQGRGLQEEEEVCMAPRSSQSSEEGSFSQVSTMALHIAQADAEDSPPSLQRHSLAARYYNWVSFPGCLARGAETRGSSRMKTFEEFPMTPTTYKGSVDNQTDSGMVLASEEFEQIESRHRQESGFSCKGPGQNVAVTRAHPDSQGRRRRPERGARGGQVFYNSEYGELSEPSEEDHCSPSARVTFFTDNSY

Regarding `O=c1oc2cc(O)ccc2c2oc3cc(O)ccc3c12` [1-F4, 3,9-Dihydroxy-6-benzofurano [3,2-c]chromenone], at 10 µM the inhibition in assay [1] was 59%.

Take `COc1cc(/C=C/C(=O)CC(=O)/C=C/c2ccc(O)c(OC)c2)ccc1O` [1-D6, (1E,6E)-1,7-Bis(4-hydroxy-3-methoxyphenyl)-1,6-heptadiene-3,5-dione]: the inhibition at 10 µM at Casein kinase 2 (CK2) was greater than 50%. Same read-out and setting: next, `COc1cccc2c1cc([N+](=O)[O-])c1c(C(=O)O)cc3c(c12)OCO3` [1-F3, 8-methoxy-6-nitro phenanthro[3,4-d] [1, 3] dioxole-5-carboxylic acid]: greater than 50%.
